Measured values reported in PubChem BioAssay AID328 (DTP/NCI, 2004).
Where “and” joins values, the source holds several entries; their conditions need not be identical. Identical values can stand only once. Toxic doses and inconclusive results are not listed. Non-standard residues stand in square brackets, D forms with d. Residues, ends and D or L forms follow the SMILES beside them. ξ: configuration not given here. ξPhe(4-N(CH2CH2Cl)2) = NC(Cc1ccc(N(CCCl)CCCl)cc1)C(=O)O

Tested on: BDF1 mice, P388 leukemia ip, median survival T/C
Assay: NCI In Vivo Anticancer Drug Screen. Data for tumor model P388 Leukemia (intraperitoneal) in B6D2F1 (BDF1) mice
Conditions: endpoint: median survival time, higher = longer survival
How it was run: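 Antitumour effect was judged in vivo: survival in drug-treated mice, normalised to that of vehicle-dosed controls, gives the reported T/C.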

[1] = dose: 50.0 mg/kg/injection, schedule: Q01DX009 (ip), vehicle: saline with Tween-80
[2] = dose: 100.0 mg/kg/injection, schedule: Q01DX009 (ip), vehicle: saline with Tween-80
[3] = dose: 200.0 mg/kg/injection, schedule: Q01DX009 (ip), vehicle: saline with Tween-80
[4] = dose: 25.0 mg/kg/injection, schedule: Q01DX009 (ip), vehicle: saline with Tween-80
[5] = dose: 100.0 mg/kg/injection, schedule: Q04DX003 (ip), vehicle: saline with Tween-80
[6] = dose: 200.0 mg/kg/injection, schedule: Q04DX003 (ip), vehicle: saline with Tween-80
[7] = dose: 50.0 mg/kg/injection, schedule: Q01DX009 (ip), vehicle: saline
[8] = dose: 100.0 mg/kg/injection, schedule: Q01DX009 (ip), vehicle: saline
[9] = dose: 100.0 mg/kg/injection, schedule: Q04DX003 (ip), vehicle: saline
[10] = dose: 200.0 mg/kg/injection, schedule: Q01DX009 (ip), vehicle: saline
[11] = dose: 200.0 mg/kg/injection, schedule: Q04DX003 (ip), vehicle: saline
[12] = dose: 2.5 mg/kg/injection, schedule: Q01DX009 (ip), vehicle: saline
[13] = dose: 5.0 mg/kg/injection, schedule: Q01DX009 (ip), vehicle: saline
[14] = dose: 10.0 mg/kg/injection, schedule: Q01DX009 (ip), vehicle: saline
[15] = dose: 12.5 mg/kg/injection, schedule: Q01DX009 (ip), vehicle: saline

COc1ccc(CC2C(=O)NC(C)C(=O)N(C)C3C(=O)N(C)C(Cc4ccc(O)c(c4)Oc4ccc(cc4)C3O)C(=O)NC(C)C(=O)NC(C)C(=O)N2C)cc1 (stereo not drawn) (tested in a mixture with another compound)
T/C (dose: 0.5 mg/kg/injection, schedule: Q01DX009 (ip), vehicle: alcohol): 179 % of control
T/C (dose: 0.5 mg/kg/injection, schedule: Q01DX009 (ip), vehicle: carboxymethylcellulose (CMC)): 207 % of control
T/C (dose: 1.0 mg/kg/injection, schedule: Q01DX009 (ip), vehicle: alcohol): 158 % of control
T/C (dose: 1.0 mg/kg/injection, schedule: Q01DX009 (ip), vehicle: carboxymethylcellulose (CMC)): 182 % of control
T/C (dose: 2.0 mg/kg/injection, schedule: Q01DX009 (ip), vehicle: alcohol): 208 % of control
T/C (dose: 2.0 mg/kg/injection, schedule: Q01DX009 (ip), vehicle: carboxymethylcellulose (CMC)): 207 % of control

CC(=O)OC1=C2OC(=O)C3(C2C=CC=C1)C1C=CC=CC13 (stereo not drawn)
T/C [1]: 116 % of control
T/C [2]: 116 % of control
T/C [3]: 120 % of control

COc1cccc2ccc(CC(O)(c3ccccc3)c3ccccc3)nc12
T/C [4]: 91 % of control
T/C [1]: 100 % of control
T/C [2]: 100 % of control

CC1(C)C=C(C(N)=O)C(C)(C)N1O
T/C (dose: 100.0 mg/kg/injection, schedule: Q01DX001 (ip), vehicle: Klucel (hydroxypropylcellulose) (HPC)): 100 % of control
T/C (dose: 200.0 mg/kg/injection, schedule: Q01DX001 (ip), vehicle: Klucel (hydroxypropylcellulose) (HPC)): 88 % of control
T/C (dose: 400.0 mg/kg/injection, schedule: Q01DX001 (ip), vehicle: Klucel (hydroxypropylcellulose) (HPC)): 96 % of control

CCOC(=O)C(Cc1ccc(N(CCCl)CCCl)cc1)NC(=O)C(Cc1ccccc1)NC(=O)C(NC(=O)CNC(=O)C1CCCN1)C(C)C (stereo not drawn) (H-PGVF[ξPhe(4-N(CH2CH2Cl)2)]-OEt; configuration not given here)
T/C (dose: 5.0 mg/kg/injection, schedule: Q04DX003 (ip), vehicle: water): 95 % of control
T/C (dose: 10.0 mg/kg/injection, schedule: Q04DX003 (ip), vehicle: water): 100 % of control
T/C (dose: 20.0 mg/kg/injection, schedule: Q04DX003 (ip), vehicle: water): 176 % of control
T/C (dose: 40.0 mg/kg/injection, schedule: Q04DX003 (ip), vehicle: water): 241 % of control
T/C (dose: 80.0 mg/kg/injection, schedule: Q04DX003 (ip), vehicle: water): 265 % of control

O=C(NCCCCCCCCCCNC(=O)N1CC1)N1CC1
T/C (dose: 3.0 mg/kg/injection, schedule: Q04DX003 (ip), vehicle: saline with Tween-80): 154 % of control
T/C (dose: 4.5 mg/kg/injection, schedule: Q04DX003 (ip), vehicle: saline with Tween-80): 241 % of control

CCCOP(=O)(OCCC)C(OC(=O)C(C)C)=C(C)C
T/C [5]: 120 % of control
T/C [6]: 105 % of control

CC(C)(S)C(N)C(=O)O (stereo not drawn)
T/C [7]: 86 % of control
T/C [8]: 90 % of control
T/C [9]: 91 % of control
T/C [10]: 90 % of control
T/C [11]: 91 % of control
T/C (dose: 400.0 mg/kg/injection, schedule: Q04DX003 (ip), vehicle: saline): 100 % of control

O=C(OC1c2ccccc2C2CC21)c1cc([N+](=O)[O-])cc([N+](=O)[O-])c1 (stereo not drawn)
T/C [1]: 100 % of control
T/C [2]: 104 % of control
T/C [3]: 104 % of control

CCOC1=NCCCCCCC1
T/C [1]: 98 % of control
T/C [2]: 97 % of control
T/C [3]: 99 % of control

COc1ccc(-n2c(=O)c(N=Nc3ccccc3)c(O)n(-c3ccc(C)cc3)c2=S)cc1
T/C (dose: 50.0 mg/kg/injection, schedule: Q01DX001 (ip), vehicle: saline sonified): 90 % of control
T/C (dose: 100.0 mg/kg/injection, schedule: Q01DX001 (ip), vehicle: saline sonified): 100 % of control
T/C (dose: 200.0 mg/kg/injection, schedule: Q01DX001 (ip), vehicle: saline sonified): 100 % of control

O=C(Nc1cccc(Cl)c1)N1c2ccccc2SC1c1ccco1 (stereo not drawn)
T/C [1]: 91 % of control
T/C [2]: 107 % of control
T/C [3]: 109 % of control

C=CCCCCC/C=C/CCCCCC
T/C (dose: 75.0 mg/kg/injection, schedule: Q01DX010 (ip), vehicle: saline with Tween-80): 90 % of control
T/C (dose: 150.0 mg/kg/injection, schedule: Q01DX010 (ip), vehicle: saline with Tween-80): 122 % of control

COC1CC(C)(O)C(OC2CCC(OC(=O)C(C)C(O)c3ccc4c(c3)C(=O)C=C(C)C4=O)C(C)O2)C(C)O1 (stereo not drawn)
T/C (dose: 1.25 mg/kg/injection, schedule: Q01DX009 (ip), vehicle: saline): 100 % of control and 103 % of control
T/C [12]: 94 % of control and 100 % of control
T/C [13]: 99 % of control
T/C [14]: 99 % of control

Nc1nc(N)c2cc(N3CCCC3c3ccc(Cl)cc3)ccc2n1 (stereo not drawn)
T/C (dose: 3.12 mg/kg/injection, schedule: Q01DX009 (ip), vehicle: saline): 109 % of control
T/C [15]: 89 % of control
T/C (dose: 12.5 mg/kg/injection, schedule: Q04DX003 (ip), vehicle: water): 92 % of control
T/C (dose: 25.0 mg/kg/injection, schedule: Q04DX003 (ip), vehicle: water): 111 % of control
T/C (dose: 50.0 mg/kg/injection, schedule: Q04DX003 (ip), vehicle: water): 115 % of control

ClCCn1cnc2c(SCc3ccccc3Cl)ncnc21
T/C [4]: 100 % of control
T/C [1]: 91 % of control
T/C [2]: 108 % of control
T/C [5]: 100 % of control
T/C (dose: 400.0 mg/kg/injection, schedule: Q04DX003 (ip), vehicle: saline with Tween-80): 112 % of control

CO[C@@]12[C@H](COC(N)=O)C3=C(C(=O)C(C)=C(N)C3=O)N1C[C@H]1[C@@H]2N1C(=O)[C@@H]1N2C(=O)[C@@H](NC(=O)Cc3ccccc3)[C@H]2SC1(C)C
T/C [15]: 151 % of control
T/C (dose: 25.0 mg/kg/injection, schedule: Q01DX009 (ip), vehicle: saline): 160 % of control
T/C [7]: 210 % of control

CC1(c2cccc3ccccc23)NC(=O)c2ccccc2N1 (stereo not drawn)
T/C (dose: 50.0 mg/kg/injection, schedule: Q01DX009 (ip), vehicle: Klucel (hydroxypropylcellulose) (HPC)): 105 % of control
T/C (dose: 100.0 mg/kg/injection, schedule: Q01DX009 (ip), vehicle: Klucel (hydroxypropylcellulose) (HPC)): 120 % of control

CC(CCl)N(CCCl)Cc1cccc(Nc2ncnc3nc[nH]c23)c1 (stereo not drawn)
T/C (dose: 0.8 mg/kg/injection, schedule: Q01DX009 (ip), vehicle: saline): 152 % of control
T/C (dose: 1.5 mg/kg/injection, schedule: Q01DX009 (ip), vehicle: saline): 154 % of control
T/C (dose: 2.0 mg/kg/injection, schedule: Q01DX009 (ip), vehicle: saline): 164 % of control
T/C [12]: 185 % of control
T/C (dose: 3.0 mg/kg/injection, schedule: Q01DX009 (ip), vehicle: saline): 160 % of control
T/C [13]: 175 % of control
T/C [14]: 180 % of control
T/C (dose: 10.0 mg/kg/injection, schedule: Q04DX003 (ip), vehicle: saline): 86 % of control

COc1cc(Cl)ccc1C
T/C [1]: 100 % of control
T/C (dose: 50.0 mg/kg/injection, schedule: Q04DX003 (ip), vehicle: saline with Tween-80): 104 % of control
T/C (dose: 88.0 mg/kg/injection, schedule: Q01DX009 (ip), vehicle: saline with Tween-80): 108 % of control and 114 % of control
T/C [2]: 120 % of control
T/C [5]: 113 % of control
T/C (dose: 132.0 mg/kg/injection, schedule: Q01DX009 (ip), vehicle: saline with Tween-80): 108 % of control
T/C [3]: 120 % of control and 123 % of control
T/C [6]: 118 % of control
T/C (dose: 300.0 mg/kg/injection, schedule: Q01DX009 (ip), vehicle: saline with Tween-80): 123 % of control

c1ccc(OP2OCCO2)cc1
T/C [7]: 104 % of control
T/C [8]: 104 % of control
T/C [9]: 87 % of control
T/C [10]: 95 % of control
T/C [11]: 112 % of control

COC1C(CO)OC(n2cnc3c(=S)nc(N)[nH]c32)C1O (stereo not drawn)
T/C [5]: 104 % of control
T/C [6]: 104 % of control
T/C (dose: 600.0 mg/kg/injection, schedule: Q04DX003 (ip), vehicle: saline with Tween-80): 122 % of control
